From the NIST ThermoML archive (doi:10.1021/je8008864)
Numbers after ± are expanded uncertainties.

Assay: mn = molality of the nth substance listed, in mol/kg
Conditions: 101 kPa, Liquid; for viscosity: Rotational; for mass density: Vibrating tube method

SMILES: CC(CN(C)C)CN1c2ccccc2CCc2ccccc21.O=C(O)/C=C\C(=O)O (centres undefined) [trimipramine maleate] + O
- viscosity (293.15 K, m1 = 0.0075): 1.035 ± 0.006 mPa·s
- viscosity (293.15 K, m1 = 0.01): 1.035 ± 0.006 mPa·s
- viscosity (293.15 K, m1 = 0.0125): 1.036 ± 0.006 mPa·s
- viscosity (293.15 K, m1 = 0.0152): 1.036 ± 0.006 mPa·s
- viscosity (293.15 K, m1 = 0.0175): 1.037 ± 0.006 mPa·s
- viscosity (293.15 K, m1 = 0.02): 1.038 ± 0.006 mPa·s
- viscosity (293.15 K, m1 = 0.025): 1.04 ± 0.006 mPa·s
- mass density (293.15 K, m1 = 0.0075): 998.499 ± 0.11 kg/m3
- mass density (293.15 K, m1 = 0.01): 998.566 ± 0.11 kg/m3
- mass density (293.15 K, m1 = 0.0125): 998.625 ± 0.11 kg/m3
- mass density (293.15 K, m1 = 0.0152): 998.675 ± 0.11 kg/m3
- mass density (293.15 K, m1 = 0.0175): 998.715 ± 0.11 kg/m3
- mass density (293.15 K, m1 = 0.02): 998.745 ± 0.1 kg/m3
- mass density (293.15 K, m1 = 0.025): 998.799 ± 0.1 kg/m3
- viscosity (298.15 K, m1 = 0.0076): 0.937 ± 0.006 mPa·s
- viscosity (298.15 K, m1 = 0.01): 0.9373 ± 0.006 mPa·s
- viscosity (298.15 K, m1 = 0.0125): 0.9376 ± 0.006 mPa·s
- viscosity (298.15 K, m1 = 0.0152): 0.9379 ± 0.006 mPa·s
- viscosity (298.15 K, m1 = 0.0175): 0.9382 ± 0.006 mPa·s
- viscosity (298.15 K, m1 = 0.02): 0.9385 ± 0.006 mPa·s
- viscosity (298.15 K, m1 = 0.025): 0.9393 ± 0.006 mPa·s
- mass density (298.15 K, m1 = 0.0076): 997.329 ± 0.12 kg/m3
- mass density (298.15 K, m1 = 0.01): 997.396 ± 0.11 kg/m3
- mass density (298.15 K, m1 = 0.0125): 997.455 ± 0.11 kg/m3
- mass density (298.15 K, m1 = 0.0152): 997.499 ± 0.11 kg/m3
- mass density (298.15 K, m1 = 0.0175): 997.535 ± 0.11 kg/m3
- mass density (298.15 K, m1 = 0.02): 997.569 ± 0.11 kg/m3
- mass density (298.15 K, m1 = 0.025): 997.601 ± 0.1 kg/m3
- viscosity (303.15 K, m1 = 0.0076): 0.8339 ± 0.006 mPa·s
- viscosity (303.15 K, m1 = 0.01): 0.8342 ± 0.006 mPa·s
- viscosity (303.15 K, m1 = 0.0125): 0.8345 ± 0.006 mPa·s
- viscosity (303.15 K, m1 = 0.0152): 0.8348 ± 0.006 mPa·s
- viscosity (303.15 K, m1 = 0.0175): 0.835 ± 0.006 mPa·s
- viscosity (303.15 K, m1 = 0.02): 0.8354 ± 0.006 mPa·s
- viscosity (303.15 K, m1 = 0.025): 0.8361 ± 0.006 mPa·s
- mass density (303.15 K, m1 = 0.0076): 995.919 ± 0.12 kg/m3
- mass density (303.15 K, m1 = 0.01): 995.981 ± 0.11 kg/m3
- mass density (303.15 K, m1 = 0.0125): 996.031 ± 0.11 kg/m3
- mass density (303.15 K, m1 = 0.0152): 996.081 ± 0.11 kg/m3
- mass density (303.15 K, m1 = 0.0175): 996.105 ± 0.11 kg/m3
- mass density (303.15 K, m1 = 0.02): 996.141 ± 0.11 kg/m3
- mass density (303.15 K, m1 = 0.025): 996.175 ± 0.1 kg/m3
- viscosity (308.15 K, m1 = 0.0076): 0.7339 ± 0.006 mPa·s
- viscosity (308.15 K, m1 = 0.01): 0.7341 ± 0.006 mPa·s
- viscosity (308.15 K, m1 = 0.0125): 0.7343 ± 0.006 mPa·s
- viscosity (308.15 K, m1 = 0.0152): 0.7346 ± 0.006 mPa·s
- viscosity (308.15 K, m1 = 0.0175): 0.7348 ± 0.006 mPa·s
- viscosity (308.15 K, m1 = 0.02): 0.7351 ± 0.006 mPa·s
- viscosity (308.15 K, m1 = 0.025): 0.7355 ± 0.006 mPa·s
- mass density (308.15 K, m1 = 0.0076): 994.296 ± 0.11 kg/m3
- mass density (308.15 K, m1 = 0.01): 994.355 ± 0.11 kg/m3
- mass density (308.15 K, m1 = 0.0125): 994.401 ± 0.11 kg/m3
- mass density (308.15 K, m1 = 0.0152): 994.455 ± 0.11 kg/m3
- mass density (308.15 K, m1 = 0.0175): 994.475 ± 0.11 kg/m3
- mass density (308.15 K, m1 = 0.02): 994.515 ± 0.11 kg/m3
- mass density (308.15 K, m1 = 0.025): 994.535 ± 0.1 kg/m3
- viscosity (310.15 K, m1 = 0.0076): 0.6928 ± 0.006 mPa·s
- viscosity (310.15 K, m1 = 0.01): 0.693 ± 0.006 mPa·s
- viscosity (310.15 K, m1 = 0.0125): 0.6932 ± 0.006 mPa·s
- viscosity (310.15 K, m1 = 0.0152): 0.6934 ± 0.006 mPa·s
- viscosity (310.15 K, m1 = 0.0175): 0.6937 ± 0.006 mPa·s
- viscosity (310.15 K, m1 = 0.02): 0.6939 ± 0.006 mPa·s
- viscosity (310.15 K, m1 = 0.025): 0.6943 ± 0.006 mPa·s
- mass density (310.15 K, m1 = 0.0076): 993.58 ± 0.11 kg/m3
- mass density (310.15 K, m1 = 0.01): 993.638 ± 0.11 kg/m3
- mass density (310.15 K, m1 = 0.0125): 993.681 ± 0.11 kg/m3
- mass density (310.15 K, m1 = 0.0152): 993.721 ± 0.11 kg/m3
- mass density (310.15 K, m1 = 0.0175): 993.749 ± 0.11 kg/m3
- mass density (310.15 K, m1 = 0.02): 993.769 ± 0.11 kg/m3
- mass density (310.15 K, m1 = 0.025): 993.799 ± 0.1 kg/m3
- viscosity (313.15 K, m1 = 0.0076): 0.6561 ± 0.006 mPa·s
- viscosity (313.15 K, m1 = 0.01): 0.6564 ± 0.006 mPa·s
- viscosity (313.15 K, m1 = 0.0125): 0.6566 ± 0.006 mPa·s
- viscosity (313.15 K, m1 = 0.0152): 0.6568 ± 0.006 mPa·s
- viscosity (313.15 K, m1 = 0.0175): 0.6571 ± 0.006 mPa·s
- viscosity (313.15 K, m1 = 0.02): 0.6573 ± 0.006 mPa·s
- viscosity (313.15 K, m1 = 0.025): 0.6579 ± 0.006 mPa·s
- mass density (313.15 K, m1 = 0.0076): 992.458 ± 0.11 kg/m3
- mass density (313.15 K, m1 = 0.01): 992.506 ± 0.11 kg/m3
- mass density (313.15 K, m1 = 0.0125): 992.551 ± 0.11 kg/m3
- mass density (313.15 K, m1 = 0.0152): 992.589 ± 0.11 kg/m3
- mass density (313.15 K, m1 = 0.0175): 992.609 ± 0.11 kg/m3
- mass density (313.15 K, m1 = 0.02): 992.615 ± 0.11 kg/m3
- mass density (313.15 K, m1 = 0.025): 992.635 ± 0.11 kg/m3
